Assay results: US7265099B1, “Use of chemical chelators as reversal agents for drug-induced neuromuscular block” (Organon N.V., priority 1999, dated 2007)
Marks after values point to notes of the source that are not given here.

Experiments:
[1] = test system: steady-state neuromuscular block induced by tubocurarine chloride (T-C); test: Reversal of neuromuscular blockade in vivo, anaesthetized guinea pig, tubocurarine; details: T-C infusion, 85–90% block, anaesthetized guinea pigs, i.v. reversal agent; mean
Protocol: (§1) Male Dunkin-Hartley guinea pigs (bodyweight: 600–900 g) were anaesthetized by i.p. administration of 10 mg/kg pentobarbitone and 1000 mg/kg urethane. After tracheotomy, the animals were artificially ventilated using a Harvard small animal ventilator. A catheter was placed into the carotid artery for continuous monitoring of arterial blood pressure and the taking of blood samples for blood gas analysis. Heart rate was derived from the blood pressure signal. The sciatic nerve was stimulated (rectangular pulses of 0.5 ms duration at 10 s (0.1 Hz) intervals at a supramaximal voltage, using a Grass S88 Stimulator) and the force of M. gastrocnemius contractions was measured using a Grass FT03 force-displacement transducer. Contractions, blood pressure and heart rate were recorded on a multichannel Grass 7D recorder. Catheters were placed in both jugular veins. One catheter was used for the continuous infusion of a neuromuscular blocking agent. The infusion rate of the neuromuscular blocking agent was increased until a steady-state block of 85–90% was obtained. The other catheter was used for administration of increasing doses of the reversal agent. During continuous infusion of the neuromuscular blocking agent, single doses of increasing concentration of reversal agent were given. At the end of the experiment, the measured force of muscle contractions was plotted against the concentration of reversal agent, and using regression analysis techniques, the 50% reversal concentration was calculated.

[2] = Complexation of rocuronium bromide by chemical chelators (1H NMR, 303 K); format: binding; details: NMR spectroscopy at 303 K, D2O, curve fitting of proton chemical shift changes
Protocol: All the ^1H spectra (303 K) were recorded at 400.13 MHz with 128 scans, sw=12 ppm, TD=32 k and zero filled to 64 k real points in processing. All experiments were measured at 303K.
Determination of Stoichiometry
Stock solutions of rocuronium bromide and γ-cyclodextrin (15) were prepared, both with a concentration of 6.02 mM. From these, sixteen solutions were prepared (with the mole % of rocuronium ranging from 0-100) by taking aliquots of 0–800 μl of the rocuronium bromide solution. Aliquots of the γ-cyclodextrin solution, 800–0 μl were added to make the solution a total volume of 800 μl and 100 mole % (i.e. 6.02 mM of [rocuronium bromide+γ-cyclodextrin]). ^1H-NMR spectra were recorded as described above.
If the chemical shift change of H9α in rocuronium bromide is defined as Δδ then a plot of [Δδ*(mole % rocuronium bromide)] vs. [mole % rocuronium bromide] gives a so called Job Plot by the method of continuous variation (Connors K. A.: Binding constants, The measurement of Molecular Complex Stability; Wiley-Interscience; New York, 1987, pp 24–28). The maximum in this plot is indicative for the stoichiometry of the complex.
Determination of the Association Constants
A stock solution of rocuronium bromide: 0.821 mM in D2O was prepared. […]
^1H NMR spectra were recorded as descibed above. […]

[3] = test system: steady-state neuromuscular block induced by vecuronium bromide (Vec); test: Reversal of neuromuscular blockade in vivo, anaesthetized guinea pig, vecuronium; details: Vec infusion, 85–90% block, anaesthetized guinea pigs, i.v. reversal agent; mean
Protocol: as §1

[4] = test system: steady-state neuromuscular block induced by suxamethonium chloride (Sux; succinylcholine); test: Reversal of neuromuscular blockade in vivo, anaesthetized guinea pig, suxamethonium; details: Sux infusion, 85–90% block, anaesthetized guinea pigs, i.v. reversal agent; mean
Protocol: as §1

[5] = test system: steady-state neuromuscular block induced by mivacurium chloride (Miv); test: Reversal of neuromuscular blockade in vivo, anaesthetized guinea pig, mivacurium; details: Miv infusion, 85–90% block, anaesthetized guinea pigs, i.v. reversal agent; mean
Protocol: as §1

[6] = test system: steady-state neuromuscular block induced by rocuronium bromide (Roc); test: Reversal of neuromuscular blockade in vivo, anaesthetized guinea pig, rocuronium; details: Roc infusion, 85–90% block, anaesthetized guinea pigs, i.v. reversal agent; mean
Protocol: as §1
Reversal of neuromuscular block in vivo, induced by rocuronium bromide, was carried out as described in Example 5.

[7] = test system: steady-state neuromuscular block induced by pancuronium bromide (Pan); test: Reversal of neuromuscular blockade in vivo, anaesthetized guinea pig, pancuronium; details: Pan infusion, 85–90% block, anaesthetized guinea pigs, i.v. reversal agent; mean
Protocol: as §1

[8] = test system: steady-state neuromuscular block induced by cis-atracurium (Cis-Atr); test: Reversal of neuromuscular blockade in vivo, anaesthetized guinea pig, cis-atracurium; details: Cis-Atr infusion, 85–90% block, anaesthetized guinea pigs, i.v. reversal agent; mean
Protocol: as §1

[9] = test system: steady-state neuromuscular block induced by atracurium besilate (Atr); test: Reversal of neuromuscular blockade in vivo, anaesthetized guinea pig, atracurium; details: Atr infusion, 85–90% block, anaesthetized guinea pigs, i.v. reversal agent; mean
Protocol: as §1

[10] = test system: steady-state neuromuscular block induced by rapacuronium bromide (Rap; Org 9487); test: Reversal of neuromuscular blockade in vivo, anaesthetized guinea pig, rapacuronium; details: Rap infusion, 85–90% block, anaesthetized guinea pigs, i.v. reversal agent; mean
Protocol: as §1

[11] = test system: neuromuscular block induced by rocuronium in isolated mouse hemidiaphragm; test: Reversal of neuromuscular block in vitro: isolated mouse hemidiaphragm preparation
Protocol: Hemidiaphragms, with phrenic nerves attached, were removed from euthanized male mice (Institute of Cancer Research; bodyweight: 20–60 g). The preparations were mounted on a tissue holder and placed in a tissue bath filled with a modified Krebs-Henseleit solution (composition: 118 mM NaCl, 30 mM NaHCO3, 5 mM KCl, 1 mM KH2PO4, 1 mM MgSO4, 30 mM glucose and 2.5 mM CaCl2) at 37° C. and bubbled with 95% oxygen and 5% carbondioxide. One end of the preparation was connected with a siliconized silk suture to a Grass FT03 force-displacement transducer. An initial force of 10 mN was applied. The phrenic nerve was placed on a bipolar platinum electrode and was stimulated with rectangular pulses of 0.2 ms duration at 20 s (0.05 Hz) intervals at a supramaximal voltage, using a Grass S88 Stimulator. Contractions were recorded on a four channel Grass 79D recorder.
Increasing amounts of reversal agent were then administered into the bath at intervals of 10 min. The % maximum reversal was established. At the end of the experiment, the measured muscle contractions force was plotted against the concentration of reversal agent, and using regression analysis techniques, the 50% reversal concentration was calculated.
After induction of neuromuscular block by rocuronium, the % maximum reversal produced by the addition of a number of γ-cyclodextrin derivatives (compounds 11–16), a cyclic octasaccharide comprising 4 rhamnosyl-mannopyranosyl units (compound 24), or a number of paracyclophane derivatives (compounds 17–21 and 23) are presented in Table II.
Reversal of neuromuscular block in vitro was carried out using the mouse hemidiaphragm preparation as described in Example 6.

## OC[C@H]1O[C@@H]2O[C@H]3[C@H](O)[C@@H](O)[C@@H](O[C@H]4[C@H](O)[C@@H](O)[C@@H](O[C@H]5[C@H](O)[C@@H](O)[C@@H](O[C@H]6[C@H](O)[C@@H](O)[C@@H](O[C@H]7[C@H](O)[C@@H](O)[C@@H](O[C@H]8[C@H](O)[C@@H](O)[C@@H](O[C@H]9[C@H](O)[C@@H](O)[C@@H](O[C@H]1[C@H](O)[C@H]2O)O[C@@H]9CO)O[C@@H]8CO)O[C@@H]7CO)O[C@@H]6CO)O[C@@H]5CO)O[C@@H]4CO)O[C@@H]3CO [Compound 15, γ-cyclodextrin]
[1]
  Dose (ED50) producing 50% reversal of steady-state neuromuscular block: 630 (2) μmol.kg^−1
[2]
  Association constant (Ka, M^−1) of 1:1 complex of rocuronium bromide and cyclic host compound: 10,000–20,400# M^−1
[3]
  Dose (ED50) producing 50% reversal of steady-state neuromuscular block: 75 (4) μmol.kg^−1
[4]
  Dose (ED50) producing 50% reversal of steady-state neuromuscular block: 1189 (2) μmol.kg^−1
[5]
  Dose (ED50) producing 50% reversal of steady-state neuromuscular block: 1690 (2) μmol.kg^−1
[6]
  Dose (ED50) producing 50% reversal of steady-state neuromuscular block: 4 (3) μmol.kg^−1
[7]
  Dose (ED50) producing 50% reversal of steady-state neuromuscular block: 186 (4) μmol.kg^−1
[8]
  Dose (ED50) producing 50% reversal of steady-state neuromuscular block: 1710 (2) μmol.kg^−1
[9]
  Dose (ED50) producing 50% reversal of steady-state neuromuscular block: 2793 (4) μmol.kg^−1
[10]
  Dose (ED50) producing 50% reversal of steady-state neuromuscular block: 57 (3) μmol.kg^−1
[11]; 3.1 μM rocuronium
  Mouse hemidiaphragm: maximum reversal (%): 94%
[11]; 3.1 μM rocuronium, mouse hemidiaphragm
  concentration of chemical chelator at maximum reversal: 144 µM
[11]; rocuronium-induced block
  Reversal of the neuromuscular blocking action of rocuronium (in words): efficiently blocked
